Results: US7723523B2, “Tetrahydropyridothiophenes” (4SC AG, priority 2004, dated 2010)
pIC50: −log10 of the molar value.

Tests used:
[1] = system: RKO colon adenocarcinoma cells (RKOp27) arrested by expression of ectopic p27Kip1; test: Alamar Blue cell viability assay on RKOp27 cells arrested by Ponasterone A-induced p27Kip1 (cell cycle specific mode of action); type: cell-based; conditions: Homo sapiens, RKOp27, 72 h, cells arrested by p27Kip1 induced with 10 μM Ponasterone A, 72 hours incubation, read-out: IC50 RKO p27 arrested
Description: To determine the cell cycle specific mode of action, subclones of RKO colon adenocarcinoma cells (RKOp27 or RKOp21 as described by Schmidt et al. in Oncogene 19, 2423-2429; 2000) are seeded into 96 well flat bottom plates at a density of 16000 cells per well in a volume of 50 μl per well in DMEM growth medium with 10% FCS containing 10 μM Ponasterone A. 24 hours after seeding 50 μl each of the compound dilutions in DMEM are added into each well of the 96 well plate. Each compound dilution is tested as quadruplicates. Wells containing untreated control cells are filled with 50 μl DMEM containing 1% DMSO. The cells are then incubated with the substances for 72 hours at 37° C. in a humidified atmosphere containing 5% carbon dioxide. To determine the viability of the cells, 10 μl of an Alamar Blue solution (Biosource) are added and the fluorescence is measured at an extinction of 544 nm and an emission of 590 nm. For the calculation of the cell viability the emission value from untreated cells is set as 100% viability and the emission rates of treated cells are set in relation to the values of untreated cells. Viabilities are expressed as % values. Viability is compared of proliferating cells grown in the absence of the inducer Ponasterone A, versus viability of cells arrested by the expression of ectopic p27Kip1 induced by Ponasterone A. The data of this experimental setting are summarized in table A (2nd column).

[2] = system: RKO (RKOp27) human colon adenocarcinoma cells; test: Alamar Blue cell viability assay, anti-proliferative/cytotoxic activity on proliferating RKOp27 cells; type: cell-based; conditions: absence of Ponasterone A, 72 hours incubation, read-out: IC50 RKO p27 proliferating
Description: The anti-proliferative/cytotoxic activity of the compounds described herein, can be tested on subclones of RKO (RKOp27) human colon adenocarcinoma cells (Schmidt et al., Oncogene 19, 2423-2429; 2000) using the Alamar Blue cell viability assay (described in O'Brien et al. Eur J Biochem 267, 5421-5426, 2000). The compounds are dissolved as 20 mM solutions in dimethylsulfoxide (DMSO) and subsequently diluted in semi-logarithmic steps. DMSO dilutions are further diluted 1:100 into Dulbecco's modified Eagle's medium (DMEM) containing 10% fetal calf serum to a final concentration twice as much as the final concentration in the test. RKO subclones are seeded into 96 well flat bottom plates at a density of 4000 cells per well in a volume of 50 μl per well. 24 hours after seeding 50 μl each of the compound dilutions in DMEM are added into each well of the 96 well plate. Each compound dilution is tested as quadruplicates. Wells containing untreated control cells are filled with 50 μl DMEM containing 1% DMSO. The cells are then incubated with the substances for 72 hours at 37° C. in a humidified atmosphere containing 5% carbon dioxide. To determine the viability of the cells, 10 μl of an Alamar Blue solution (Biosource) are added and the fluorescence is measured at an extinction of 544 nm and an emission of 590 nm. For the calculation of the cell viability the emission value from untreated cells is set as 100% viability and the emission rates of treated cells are set in relation to the values of untreated cells. Viabilities are expressed as % values.
The corresponding IC50 values of the compounds for anti-proliferative/cytotoxic activity are determined from the concentration-effect curves.
Representative IC50 values for anti-proliferation/cytotoxicity determined in the aforementioned assay are described in the table A (1st column), in which the numbers of the compound correspond to the numbers of the examples.

Row | Structure (SMILES) | pIC50 [1] | pIC50 [2]
1 | CCOC(=O)N1CCc2c(sc(NC(=O)/C=C/c3ccccc3OC(C)=O)c2C#N)C1 [Example 69, 2-[(E)-3-(2-Acetoxy-phenyl)-allanoylamino]-3-cyano-4,7-dihydro-5H-thieno[2,3-c]pyridine-6-carboxylic acid ethyl ester] | ≤ 4.30 | ≥ 6.30
2 | CCOC(=O)N1CCc2c(sc(NC(=O)/C=C/c3ccc(OC)cc3F)c2C#N)C1 [Example 70, 3-Cyano-2-[(E)-3-(2-fluoro-4-methoxy-phenyl)-allanoylamino]β4,7-dihydro-5H-thieno[2,3-c]pyridine-6-carboxylic acid ethyl ester] | ≤ 4.00 | ≥ 5.70
3 | CCOC(=O)N1CCc2c(sc(NC(=O)/C=C/c3csc4ccccc34)c2C#N)C1 [Example 71, 2-((E)-3-Benzo[b]thiophen-3-yl-allanoylamino)-3-cyano-[4,7-d]hydro-5H-thieno[2,3-c]pyridine-6-carboxylic acid ethyl ester] | ≤ 4.00 | ≥ 5.70
4 | CCOC(=O)N1CCc2c(sc(NC(=O)/C=C/c3ccc(Cl)s3)c2C#N)C1 [Example 72, 2-[(E)-3-(5-Chloro-thiophen-2-yl)-allanoylamino]-3-cyano-4,7-dihydro-5H-thieno[2,3-c]pyridine-6-carboxylic acid ethyl ester] | ≤ 4.00 | ≥ 5.70
5 | CCOC(=O)N1CCc2c(sc(NC(=O)/C=C/c3ccccc3-c3ccccc3)c2C#N)C1 [Example 73, 2-((E)-3-Biphenyl-2-yl-allanoylamino)-3-cyano-4,7-dihydro-5H-thieno[2,3-c]pyridine-6-carboxylic acid ethyl ester] | ≤ 4.00 | ≥ 5.70
6 | CCOC(=O)N1CCc2c(sc(NC(=O)/C=C/c3ccc(C)o3)c2C#N)C1 [Example 74, 3-Cyano-2-[(E)-3-(5-methyl-furan-2-yl)-allanoylamino]-4,7-dihydro-5H-thieno[2,3-c]pyridin-6-carboxylic acid ethyl ester] | ≤ 4.00 | ≥ 5.70
7 | CCOC(=O)N1CCc2c(sc(NC(=O)/C=C/c3sccc3C)c2C#N)C1 [Example 75, 3-Cyano-2-[(E)-3-(3-methyl-thiophen-2-yl)-allanoylamino]-4,7-dihydro-5H-thieno[2,3-c]pyridine-6-carboxylic acid ethyl ester] | ≤ 4.00 | ≥ 5.70
8 | CCOC(=O)N1CCc2c(sc(NC(=O)/C=C/c3ccc(C)s3)c2C#N)C1 [Example 76, 3-Cyano-2-[(E)-3-(5-methyl-thiophen-2-yl)-allanoylamino]-4,7-dihydro-5H-thieno[2,3-c]pyridine-6-carboxylic acid ethyl ester] | ≤ 4.00 | ≥ 5.70
9 | CCOC(=O)N1CCc2c(sc(NC(=O)/C=C/c3ccc(CC)o3)c2C#N)C1 [Example 77, 3-Cyano-2-[(E)-3-(5-ethyl-furan-2-yl)-allanoylamino]-4,7-dihydro-5H-thieno[2,3-c]pyridine-6-carboxylic acid ethyl ester] | ≤ 4.30 | ≥ 6.30
10 | CCOC(=O)N1CCc2c(sc(NC(=O)/C=C/c3ccc(Cl)o3)c2C#N)C1 [Example 78, 2-[(E)-3-(5-Chloro-furan-2-yl)-allanoylamino]-3-cyano-4,7-dihydro-5H-thieno[2,3-c]pyridine-6-carboxylic acid ethyl ester] | ≤ 4.00 | ≥ 5.70
11 | CCOC(=O)N1CCc2c(sc(NC(=O)/C=C/c3cc(F)ccc3C)c2C#N)C1 [Example 79, 3-Cyano-2-[(E)-3-(5-fluoro-2-methyl-phenyl)-allanoylamino]-4,7-dihydro-5H-thieno[2,3-c]pyridine-6-carboxylic acid ethyl ester] | ≤ 4.00 | ≥ 5.70
12 | CCOC(=O)N1CCc2c(sc(NC(=O)/C=C/c3cccc(F)c3C)c2C#N)C1 [Example 80, 3-Cyano-2-[(E)-3-(3-fluoro-2-methyl-phenyl)-allanoylamino]-4,7-dihydro-5H-thieno[2,3-c]pyridine-6-carboxylic acid ethyl ester] | ≤ 4.00 | ≥ 5.70
13 | CCOC(=O)N1CCc2c(sc(NC(=O)/C=C/c3ccccc3CC)c2C#N)C1 [Example 82, 3-Cyano-2-[(E)-3-(2-ethyl-phenyl)-allanoylamino]-4,7-dihydro-5H-thieno[2,3-c]pyridine-6-carboxylic acid ethyl ester] | ≤ 4.00 | ≥ 5.70
14 | CCOC(=O)N1CCc2c(sc(NC(=O)/C=C/c3ccccc3C#N)c2C#N)C1 [Example 83, 3-Cyano-2-[(E)-3-(2-cyano-phenyl)-allanoylamino]-4,7-dihydro-5H-thieno[2,3-c]pyridine-6-carboxylic acid ethyl ester] | ≤ 4.00 | ≥ 5.70
15 | CCOC(=O)N1CCc2c(sc(NC(=O)/C=C/c3cc4ccccc4o3)c2C#N)C1 [Example 84, 2-[(E)-3-Benzofuran-2-yl-allanoylamino]-3-cyano-4,7-dihydro-5H-thieno[2,3-c]pyridine-6-carboxylic acid ethyl ester] | ≤ 4.30 | ≥ 6.30
16 | CCOC(=O)N1CCc2c(sc(NC(=O)/C=C/c3ccc(-c4ccccc4)s3)c2C#N)C1 [Example 85, 3-Cyano-2-[(E)-3-(5-phenyl-thiophen-2-yl)-allanoylamino]-4,7-dihydro-5H-thieno[2,3-c]pyridine-6-carboxylic acid ethyl ester] | ≤ 4.00 | ≥ 5.70
17 | CCOC(=O)N1CCc2c(sc(NC(=O)/C=C/c3cccc(C)c3C)c2C#N)C1 [Example 86, 3-Cyano-2-[(E)-3-(2,3-dimethyl-phenyl)-allanoylamino]-4,7-dihydro-5H-thieno[2,3-c]pyridine-6-carboxylic acid ethyl ester] | ≤ 4.00 | ≥ 5.70
18 | CCOC(=O)N1CCc2c(sc(NC(=O)/C=C/c3ccccc3N3CCOCC3)c2C#N)C1 [Example 88, 3-Cyano-2-[(E)-3-(2-morpholin-4-yl-phenyl)-allanoylamino]-4,7-dihydro-5H-thieno[2,3-c]pyridine-6-carboxylic acid ethyl ester] | ≤ 4.30 | ≥ 6.30
19 | CCOC(=O)N1CCc2c(sc(NC(=O)/C=C/c3ccc(F)cc3C)c2C#N)C1 [Example 89, 3-Cyano-2-[(E)-3-(4-fluoro-2-methyl-phenyl)-allanoylamino]-4,7-dihydro-5H-thieno[2,3-c]pyridine-6-carboxylic acid ethyl ester] | ≤ 4.00 | ≥ 5.70
20 | CCOC(=O)N1CCc2c(sc(NC(=O)/C=C/c3nn(C)cc3Cl)c2C#N)C1 [Example 90, 2-[(E)-3-(4-Chloro-1-methyl-1H-pyrazol-3-yl)-allanoylamino]-3-cyano-4,7-dihydro-5H-thieno[2,3-c]pyridine-6-carboxylic acid ethyl ester] | ≤ 4.00 | ≥ 5.70
21 | CCOC(=O)N1CCc2c(sc(NC(=O)/C=C/c3ccc(-c4ccccc4)o3)c2C#N)C1 [Example 91, 3-Cyano-2-[(E)-3-(5-phenyl-furan-2-yl)-allanoylamino]-4,7-dihydro-5H-thieno[2,3-c]pyridine-6-carboxylic acid ethyl ester] | ≤ 4.00 | ≥ 5.70
22 | CCOC(=O)N1CCc2c(sc(NC(=O)/C=C/c3ccccc3O)c2C#N)C1 [Example 95, 3-Cyano-2-[(E)-3-(2-hydroxy-phenyl)-allanoylamino]-4,7-dihydro-5H-thieno[2,3-c]pyridine-6-carboxylic acid ethyl ester] | ≤ 4.00 | ≥ 5.70
